From ChEMBL document CHEMBL1158199, “Constituents of Ardisia japonica and their in vitro anti-HIV activity” (J Nat Prod, 1996)
Converted amounts (≈) assume the structure as drawn.

Tests used:
[1] = Cytotoxicity against human C8166 cells by XTT assay; format: cell-based; details: read-out: TC50 (the source's name)
[2] = Selectivity index, ratio of […] for human […] cells
[3] = system: Human immunodeficiency virus 1; experiment: Antiviral activity against HIV1 MN in human C8166 cells assessed as reduction of antigen gp120 production by ELISA; format: functional, organism-based; details: Human immunodeficiency virus 1, MN
[4] = Inhibition of monoclonal antibody ADP358/HIV1 gp120 interaction at 20 mg/mL
[5] = Inhibition of monoclonal antibody ADP358/HIV1 gp120 interaction at 500 mg/mL
[6] = Inhibition of monoclonal antibody ADP358/HIV1 gp120 interaction at 100 mg/mL
[7] = Inhibition of monoclonal antibody ADP358/HIV1 gp120 interaction at 4 mg/mL
[8] = Inhibition of monoclonal antibody ADP358/HIV1 gp120 interaction at 0.8 mg/mL
[9] = Inhibition of monoclonal antibody ADP358/HIV1 gp120 interaction at 400 mg/mL
[10] = Inhibition of monoclonal antibody ADP358/HIV1 gp120 interaction at 16 mg/mL
[11] = system: Human immunodeficiency virus 1; experiment: Antiviral activity against HIV1 3B in human C8166 cells assessed as neutralization of virus infectivity treated prior infection measured after 60 mins at 37 degC; format: functional
[12] = Inhibition of HIV1 recombinant gp120/sCD4 interaction by ELISA
[13] = Inhibition of monoclonal antibody ADP358/HIV1 gp120 interaction at 80 mg/mL
[14] = Inhibition of monoclonal antibody ADP358/HIV1 gp120 interaction at 3.2 mg/mL

| Structure (SMILES) | CC50 [1] [µg/mL] | Selectivity Index [2] | EC50 [3] [µg/mL] | inhibition [4] [%] | inhibition [5] [%] | inhibition [6] [%] | inhibition [7] [%] | inhibition [8] [%] | inhibition [9] [%] | inhibition [10] [%] | Activity [11] [%] | Activity [12] | inhibition [13] [%] | inhibition [14] [%] |
| --- | --- | --- | --- | --- | --- | --- | --- | --- | --- | --- | --- | --- | --- | --- |
| COc1cc2c(c(OC)c1OC)[C@H]1O[C@@H](CO)[C@H](O)[C@@H](O)[C@@H]1OC2=O | 250 (≈ 702 µM) | 1.25 | 200 (≈ 561 µM) | – | – | – | – | – | – | – | – | – | – | – |
| COc1c(O)cc2c(c1O)[C@@H]1O[C@H](CO)[C@@H](O)[C@H](O)[C@H]1OC2=O [BERGENIN] | > 1000 | >25 | 40 (≈ 122 µM) | 62 | 92 | 84 | 39 | 0 | – | – | – | – | – | – |
| O=C1O[C@H]2[C@H](O)[C@@H](O)[C@H](CO)O[C@@H]2c2c1cc(O)c(O)c2O [NORBERGENIN] | > 500 | >25 | 20 (≈ 63.6 µM) | – | – | – | – | – | 84 | 57 | 99 | Dose-dependent effect | 69 | 33 |
